The values below are quoted from earlier work in patent US20250352523A1, “TRIPLE PHARMACEUTICAL COMPOSITION FOR PROTEINACEOUS INFECTION” (priority 2024, published 2025).

One series has as its system AD. To be noted: in vivo.
The test system of the next series is patients with AD. To be noted: human, in vivo.
The next series concerns AD patients. The note with it: twelve months' treatment, versus placebo.

As for `CC(=O)Nc1ccc(O)cc1` [Acetaminophen], the “beneficial effects on AD” value in the series with AD is reported as “not found to have beneficial effects”.

Turning to `COc1ccc2cc([C@H](C)C(=O)O)ccc2c1` [Naproxen], the “cognitive function in patients with AD” value with patients with AD is reported as “did not improve cognitive function”.

In the case of `CC(=O)Oc1ccccc1C(=O)O` [aspirin], in the series with AD, the “beneficial effects on AD” value is given as “not found to have beneficial effects”. Take `CO[C@H]1/C=C/O[C@@]2(C)Oc3c(C)c(O)c4c(O)c(c(/C=N/N5CCN(C)CC5)c(O)c4c3C2=O)NC(=O)/C(C)=C\C=C\[C@H](C)[C@H](O)[C@@H](C)[C@@H](O)[C@@H](C)[C@H](OC(C)=O)[C@@H]1C` [rifampin]: in the series on AD patients, the “effects on cognition or function in AD” value was “no beneficial effects”.
